Measurements as given in paper PMC4949556, “Subtle Structural Differences Trigger Inhibitory Activity of Propafenone Analogues at the Two Polyspecific ABC Transporters: P‐Glycoprotein (P‐gp) and Breast Cancer Resistance Protein (BCRP)” (Chemmedchem, 2016).
“Also recorded” adds a separate entry of the source.

Legend:
Format in all cases: cell-based
BCRP = target: T1, BCRP (Homo sapiens, UniProt Q9UNQ0); assay: BCRP inhibition: steady-state mitoxantrone accumulation in BCRP-expressing PLB985 cells (flow cytometry); conditions: for in vitro classification as BCRP inhibitor: IC50 below 10 μM considered active; for inhibition at 20 min, 100 µM: human, PLB985 cells stably expressing BCRP, pH 7.4, probe mitoxantrone (7 µM), 100µM compound, compared to positive control Ko143 (1µM) set as 100%, mean of 3 independent experiments, read-out: In vitro activity (% inhibition), BCRP, Table S1; for IC50: BCRP IC50, mitoxantrone 7 μM, PLB985 BCRP cells, mean±SD, at least n=3 (11 a n=2); for Hill coefficient BCRP: Hill coefficient of IC50 measurement, mean ± SD of n experiments; for fold lower IC50 value for BCRP than for P-gp: ratio IC50 P-gp / IC50 BCRP
T1 construct: expressed in transfected cells; host or cells: PLB985 human myeloid leukemia cells stably expressing BCRP (gift of B. Sarkadi and K. Nemet, Budapest)
T1 sequence (Q9UNQ0 whole entry): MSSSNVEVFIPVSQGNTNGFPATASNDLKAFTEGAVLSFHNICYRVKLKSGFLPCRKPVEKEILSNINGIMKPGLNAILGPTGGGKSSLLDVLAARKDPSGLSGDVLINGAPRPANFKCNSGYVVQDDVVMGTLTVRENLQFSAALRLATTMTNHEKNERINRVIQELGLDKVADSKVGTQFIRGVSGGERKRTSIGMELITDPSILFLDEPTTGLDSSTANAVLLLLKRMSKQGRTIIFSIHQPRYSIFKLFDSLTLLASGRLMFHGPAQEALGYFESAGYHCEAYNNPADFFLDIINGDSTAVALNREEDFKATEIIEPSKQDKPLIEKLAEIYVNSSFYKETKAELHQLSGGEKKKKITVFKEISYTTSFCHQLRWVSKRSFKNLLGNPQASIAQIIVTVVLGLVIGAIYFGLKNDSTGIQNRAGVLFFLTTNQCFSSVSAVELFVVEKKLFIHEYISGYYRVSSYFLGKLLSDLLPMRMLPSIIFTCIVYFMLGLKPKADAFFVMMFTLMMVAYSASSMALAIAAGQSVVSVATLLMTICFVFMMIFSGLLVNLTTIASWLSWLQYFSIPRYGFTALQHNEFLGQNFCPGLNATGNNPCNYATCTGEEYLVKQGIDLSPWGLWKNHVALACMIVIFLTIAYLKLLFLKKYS
Method: (§1) P‐gp and BCRP inhibitory activity was assessed by implementing an intracellular accumulation assay of daunorubicin or mitoxantrone in cells overexpressing P‐gp or BCRP, respectively. In a first run, the effect of compounds 5, 6, 10, 11, and 16 (Figure 2) at 100 μM final concentration was tested (Figure 3). All compounds showing an inhibitory effect of more than 50 % compared with full inhibition by the known inhibitors of P‐gp (verapamil) and BCRP (Ko143) were further processed, and IC50 values were determined (IC50 curves and Hill coefficients are available in Figure S1 and Table S3 in the Supporting Information). […] For P‐gp, nine compounds were classified as inhibitors (5 a, 5 b, 6 a, 10 a, 10 b, 11 b, 16 a, 16 b, 16 c).
(§2) Cell culture: The human myeloid leukemia PLB985 parental and stably expressing BCRP cell lines31 were kindly provided by B. Sarkadi (Institute of Enzymology, Research Centre for Natural Sciences, Budapest, Hungary) and K. Nemet (Creative Cell Ltd., Budapest, Hungary). Both cell lines were cultured in RPMI 1640 supplemented with 10 % FBS and 100 IU mL^−1 of penicillin and streptomycin. The human T‐lymphoblast cell line CCRF VCR1000, overexpressing P‐gp, was obtained by stepwise selection of CCRF‐CEM in vincristine‐containing medium32 and was kindly provided by V. Gekeler (Altana‐Pharma formerly Byk‐Gulden, Konstanz, Germany). CCRF VCR1000 cells were cultured in RPMI 1640 medium containing 20 % FBS and were treated regularly with vincristine (1 μg mL^−1) for about 72 h, followed by centrifugation (300 g, 5 min, RT) and resuspension in normal culture medium. All cell lines were maintained at 37 °C in an atmosphere containing 5 % CO2 with 95 % relative humidity.
(§3) Steady‐state accumulation experiments: For BCRP and P‐gp inhibition studies, the steady‐state accumulation of mitoxantrone (7 μM) and daunorubicin (3 μM), respectively, was performed as previously described.33 Briefly, cells were harvested, pelleted (300 g, 5 min, 4 °C), diluted to a concentration of 12×10^6 cells mL^−1 in HPMI (10 mM Hepes, 120 mM NaCl, 5 mM KCl, 0.4 mM MgCl2, 0.04 mM CaCl2, 10 mM glucose, 10 mM NaHCO3, 5 mM Na2HPO4, pH 7.4 with NaOH) and kept on ice for further processing. For each data point, the cell suspension (25 μL) was preincubated for 5 min at 37 °C with 2 % DMSO (25 μL) in HPMI alone (DMSO control) or containing different concentrations of test compound solutions. Thereafter, cells were preloaded with daunorubicin (50 μL) or mitoxantrone (50 μL) for 30 or 20 min at 37 °C, respectively, to reach a final concentration of 3 or 7 μM, respectively. […] Preloading was stopped by chilling cells on ice for 5 min followed by the addition of 400 μL ice‐cold PBS. Cells were pelleted (300 g, 5 min, 4 °C), the supernatant was discarded, and the cell pellet was resuspended in ice‐cold PBS (150 μL). Until measurement, cells were kept on ice and in the dark. Immediately before cell fluorescence measurement by flow cytometry (BD Accuri C6 and BD FACSCalibur, Becton Dickinson, San Jose, CA, USA; MACSQuant, MiltenyiBiotec GmbH, BergischGladbach, Germany), 50 μL of 4′,6‐diamidin‐2‐phenylindole solution (DAPI, 4 μg mL^−1 in PBS) was added to gate out dead cells. 100 μM verapamil and 1 μM Ko143 were used as positive controls for P‐gp and BCRP inhibition, respectively. […]

P-gp = target: T2, P-gp (Homo sapiens, UniProt P08183); assay: P-gp inhibition: steady-state daunorubicin accumulation in P-gp-overexpressing CCRF VCR1000 cells (flow cytometry); conditions: for in vitro classification as P-gp inhibitor: IC50 below 10 μM considered active; for inhibition at 30 min, 100 µM: human, CCRF VCR1000 cells overexpressing P-gp, pH 7.4, probe daunorubicin (3 µM), 100µM compound, compared to positive control verapamil (100µM) set as 100%, mean of 3 independent experiments, read-out: In vitro activity (% inhibition), P-gp, Table S2; for Hill coefficient P-gp: Hill coefficient of IC50 measurement, mean ± SD of n experiments; for IC50: daunorubicin 3 μM, CCRF VCR1000 cells, mean±SD, at least n=3; for fold higher IC50 value for BCRP than for P-gp: ratio IC50 BCRP / IC50 P-gp
T2 construct: was obtained by stepwise selection of CCRF‐CEM in vincristine‐containing medium; endogenous in cells; host or cells: CCRF VCR1000 (vincristine-selected subline of CCRF-CEM human T-lymphoblasts; gift of V. Gekeler)
T2 sequence (P08183 whole entry): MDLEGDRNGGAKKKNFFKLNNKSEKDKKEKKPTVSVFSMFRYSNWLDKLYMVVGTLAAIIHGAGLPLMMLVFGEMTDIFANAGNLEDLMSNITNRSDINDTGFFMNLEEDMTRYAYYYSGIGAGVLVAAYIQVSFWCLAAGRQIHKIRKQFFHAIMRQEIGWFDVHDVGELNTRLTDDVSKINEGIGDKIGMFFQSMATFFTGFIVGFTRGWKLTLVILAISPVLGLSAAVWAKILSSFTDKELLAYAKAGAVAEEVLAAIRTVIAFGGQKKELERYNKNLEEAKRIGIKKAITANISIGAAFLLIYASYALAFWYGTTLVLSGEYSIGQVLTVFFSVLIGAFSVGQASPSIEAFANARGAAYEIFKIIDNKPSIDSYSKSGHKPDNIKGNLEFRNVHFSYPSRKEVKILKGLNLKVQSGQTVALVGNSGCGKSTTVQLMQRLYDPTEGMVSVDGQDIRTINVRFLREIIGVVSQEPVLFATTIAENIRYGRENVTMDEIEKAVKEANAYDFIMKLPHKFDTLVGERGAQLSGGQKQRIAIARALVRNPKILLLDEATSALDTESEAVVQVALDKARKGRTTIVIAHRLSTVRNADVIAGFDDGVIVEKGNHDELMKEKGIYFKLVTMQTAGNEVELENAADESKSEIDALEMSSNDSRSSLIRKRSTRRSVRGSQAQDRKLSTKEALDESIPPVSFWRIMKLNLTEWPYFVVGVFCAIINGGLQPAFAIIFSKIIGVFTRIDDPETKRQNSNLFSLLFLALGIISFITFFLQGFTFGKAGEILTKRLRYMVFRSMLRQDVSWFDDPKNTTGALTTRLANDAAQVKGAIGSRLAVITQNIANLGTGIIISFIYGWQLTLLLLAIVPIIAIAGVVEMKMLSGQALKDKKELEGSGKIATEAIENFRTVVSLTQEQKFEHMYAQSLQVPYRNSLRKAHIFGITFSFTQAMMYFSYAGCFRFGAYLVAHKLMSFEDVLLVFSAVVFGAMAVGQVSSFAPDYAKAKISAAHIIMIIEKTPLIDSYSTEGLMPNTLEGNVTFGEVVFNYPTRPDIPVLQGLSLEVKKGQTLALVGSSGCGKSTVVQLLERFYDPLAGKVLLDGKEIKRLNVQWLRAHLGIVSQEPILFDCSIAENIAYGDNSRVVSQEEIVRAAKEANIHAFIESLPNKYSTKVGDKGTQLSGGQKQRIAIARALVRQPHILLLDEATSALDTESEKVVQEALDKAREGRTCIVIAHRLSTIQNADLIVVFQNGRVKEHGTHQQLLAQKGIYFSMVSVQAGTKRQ
Method: as §1, §2, §3

P-gp / BCRP = target: T3, P-gp / BCRP (Homo sapiens, UniProt Q9UNQ0); assay: BCRP inhibition: steady-state mitoxantrone accumulation in BCRP-expressing PLB985 cells (flow cytometry); conditions: human, pH 7.4, probe daunorubicin (3 µM) for P-gp; mitoxantrone (7 µM) for BCRP; IC50 P-gp / IC50 BCRP; read-out: selectivity index (SI) P-gp/BCRP
T3 construct: expressed in transfected cells; host or cells: PLB985 human myeloid leukemia cells stably expressing BCRP (gift of B. Sarkadi and K. Nemet, Budapest)
T3 sequence (Q9UNQ0 whole entry): as the sequence (Q9UNQ0 whole entry) above
Method: as §1, §2, §3

CC(=O)c1ccccc1OCCN1CC(=O)N2CCCC2C1=O (stereo not shown) [Compound 11 c, 2‐(2‐(2‐Acetylphenoxy)ethyl)hexahydropyrrolo[1,2‐a]pyrazine‐1,4‐dione]
in vitro classification as BCRP inhibitor (BCRP): noninhibitors | inhibition at 20 min, 100 µM (BCRP): 37% | in vitro classification as P-gp inhibitor (P-gp): noninhibitors | inhibition at 30 min, 100 µM (P-gp): 8%

O=C(CCc1ccccc1)c1ccccc1OCCN1CC(=O)N2CCCC2C1=O (stereo not shown) [Compound 11 a, 2‐(2‐(2‐(3‐Phenylpropanoyl)phenoxy)ethyl)hexahydropyrrolo[1,2‐a]‐pyrazine‐1,4‐dione]
IC50 (BCRP): 21.5 ± 2.9 µM | Hill coefficient BCRP (BCRP): 1.0±0.0 | in vitro classification as BCRP inhibitor (BCRP): weak inhibitor | Hill coefficient P-gp (P-gp): 1.8±0.4 | in vitro classification as P-gp inhibitor (P-gp): borderline inhibitory activity; also recorded: borderline inhibitor | IC50 (P-gp): 13.9 ± 1.5 µM | fold higher IC50 value for BCRP than for P-gp (P-gp): 1.5 fold

CC(CF)NCC(O)COc1ccccc1C(=O)CCc1ccccc1 (stereo not shown) [Compound 16 b, 1‐(2‐(3‐((1‐Fluoropropan‐2‐yl)amino)‐2‐hydroxypropoxy)phenyl)‐3‐phenylpropan‐1‐one]
IC50 (BCRP): 5.5 ± 0.9 µM | Hill coefficient BCRP (BCRP): 1.6±0.2 | in vitro classification as BCRP inhibitor (BCRP): inhibitors | Hill coefficient P-gp (P-gp): 1.3±0.2 | in vitro classification as P-gp inhibitor (P-gp): inhibitors | IC50 (P-gp): 0.5 ± 0.1 µM | fold higher IC50 value for BCRP than for P-gp (P-gp): more than fivefold

COc1ccc(C(=O)CCc2ccccc2)c(OCC(O)CN2CC(=O)N3CCCC3C2=O)c1 (stereo not shown) [Compound 6 b, 2‐(2‐Hydroxy‐3‐(5‐methoxy‐2‐(3‐phenylpropanoyl)phenoxy)propyl)‐hexahydropyrrolo[1,2‐a]pyrazine‐1,4‐dione]
IC50 (BCRP): 3.8 ± 0.6 µM | Hill coefficient BCRP (BCRP): 1.1±0.2 | in vitro classification as BCRP inhibitor (BCRP): inhibitors | fold lower IC50 value for BCRP than for P-gp (BCRP): 2.9 fold | selectivity ratio (P-gp / BCRP): 2.82 | Hill coefficient P-gp (P-gp): 1.5±0.2 | in vitro classification as P-gp inhibitor (P-gp): borderline inhibitory activity | IC50 (P-gp): 11 ± 1 µM

CC(C)NCC(O)COc1ccccc1C(=O)CCc1ccccc1 (stereo not shown) [Compound 16 a, 1‐(2‐(2‐Hydroxy‐3‐(isopropylamino)propoxy)phenyl)‐3‐phenyl‐propan‐1‐one]
inhibition at 20 min, 100 µM (BCRP): 53% | Hill coefficient P-gp (P-gp): 0.9±0.1 | in vitro classification as P-gp inhibitor (P-gp): inhibitors | IC50 (P-gp): 0.3 µM | fold higher IC50 value for BCRP than for P-gp (P-gp): more than fivefold

O=C(CCc1ccccc1)c1ccccc1OCC(O)CN1CC(=O)N2CCCC2C1=O (stereo not shown) [Compound 6 a, 2‐(2‐Hydroxy‐3‐(2‐(3‐phenylpropanoyl)phenoxy)propyl)‐hexahydropyrrolo[1,2‐a]pyrazine‐1,4‐dione]
IC50 (BCRP): 5.8 ± 1 µM | Hill coefficient BCRP (BCRP): 0.9±0.1 | in vitro classification as BCRP inhibitor (BCRP): inhibitors | selectivity ratio (P-gp / BCRP): 0.27 | Hill coefficient P-gp (P-gp): 2.6±0.4 | in vitro classification as P-gp inhibitor (P-gp): inhibitors | factor more active at P-gp than methoxy analogue 6 b (P-gp; P-gp, compared with 6 b): 7 | fold more active at P-gp than analogue 11 a (P-gp; P-gp, compared with 11 a): tenfold | IC50 (P-gp): 1.6 ± 0.6 µM | fold higher IC50 value for BCRP than for P-gp (P-gp): more than 2.6 fold

O=C(CCc1ccccc1)c1ccccc1OCCNC(=O)C1CCCN1 (stereo not shown) [Compound 10 a, N ‐(2‐(2‐(3‐phenylpropanoyl)phenoxy)ethyl)pyrrolidine‐2‐carboxamide]
IC50 (BCRP): 3.3 ± 0.6 µM | Hill coefficient BCRP (BCRP): 1.3±0.2 | in vitro classification as BCRP inhibitor (BCRP): inhibitors | Hill coefficient P-gp (P-gp): 1.6±0.2 | in vitro classification as P-gp inhibitor (P-gp): inhibitors | IC50 (P-gp): 1.3 ± 0.1 µM | fold higher IC50 value for BCRP than for P-gp (P-gp): more than 2.6 fold

CC(=O)c1ccccc1OCC(O)CNC(=O)C1CCCN1 (stereo not shown) [Compound 5 c, N ‐(3‐(2‐acetylphenoxy)‐2‐hydroxypropyl)pyrrolidine‐2‐carboxamide]
in vitro classification as BCRP inhibitor (BCRP): noninhibitors | inhibition at 20 min, 100 µM (BCRP): 20% | Hill coefficient P-gp (P-gp): 1.9±0.2 | in vitro classification as P-gp inhibitor (P-gp): noninhibitors | IC50 (P-gp): 58.7 ± 9.2 µM

COc1ccc(C(=O)CCc2ccccc2)c(OCC(O)CNC(=O)C2CCCN2)c1 (stereo not shown) [Compound 5 b, N‐(2‐hydroxy‐3‐(5‐methoxy‐2‐(3‐phenylpropanoyl)phenoxy)propyl)‐pyrrolidine‐2‐carboxamide]
IC50 (BCRP): 3.1 ± 0.5 µM | Hill coefficient BCRP (BCRP): 1.4±0.1 | in vitro classification as BCRP inhibitor (BCRP): inhibitors | Hill coefficient P-gp (P-gp): 1.3±0.2 | in vitro classification as P-gp inhibitor (P-gp): inhibitors | IC50 (P-gp): 2.2 ± 0.6 µM | fold higher IC50 value for BCRP than for P-gp (P-gp): 1.4 fold

CC(=O)c1ccccc1OCCNC(=O)C1CCCN1 (stereo not shown) [Compound 10 c, N ‐(2‐(2‐acetylphenoxy)ethyl)pyrrolidine‐2‐carboxamide]
in vitro classification as BCRP inhibitor (BCRP): noninhibitors | inhibition at 20 min, 100 µM (BCRP): 24% | Hill coefficient P-gp (P-gp): 2.2±0.4 | in vitro classification as P-gp inhibitor (P-gp): noninhibitors | IC50 (P-gp): 34.8 ± 1.8 µM

COc1ccc(C(=O)CCc2ccccc2)c(OCCN2CC(=O)N3CCCC3C2=O)c1 (stereo not shown) [Compound 11 b, 2‐(2‐(5‐Methoxy‐2‐(3‐phenylpropanoyl)phenoxy)ethyl)‐hexahydropyrrolo[1,2‐a]pyrazine‐1,4‐dione]
IC50 (BCRP): 2.3 µM | Hill coefficient BCRP (BCRP): 1.1±0.2 | in vitro classification as BCRP inhibitor (BCRP): inhibitors | fold lower IC50 value for BCRP than for P-gp (BCRP): 2.7 fold | selectivity ratio (P-gp / BCRP): 2.7 | Hill coefficient P-gp (P-gp): 1.5±0.1 | in vitro classification as P-gp inhibitor (P-gp): inhibitors | IC50 (P-gp): 6.2 ± 0.4 µM

CC(=O)c1ccccc1OCC(O)CN1CC(=O)N2CCCC2C1=O (stereo not shown) [Compound 6 c, 2‐(3‐(2‐Acetylphenoxy)‐2‐hydroxypropyl)hexahydropyrrolo[1,2‐a]‐pyrazine‐1,4‐dione]
in vitro classification as BCRP inhibitor (BCRP): noninhibitors | inhibition at 20 min, 100 µM (BCRP): 33% | in vitro classification as P-gp inhibitor (P-gp): noninhibitors | inhibition at 30 min, 100 µM (P-gp): 4%

COc1ccc(C(=O)CCc2ccccc2)c(OCCNC(=O)C2CCCN2)c1 (stereo not shown) [Compound 10 b]
IC50 (BCRP): 2.9 ± 0.5 µM | Hill coefficient BCRP (BCRP): 1.0±0.1 | in vitro classification as BCRP inhibitor (BCRP): inhibitors | Hill coefficient P-gp (P-gp): 1.1±0.1 | in vitro classification as P-gp inhibitor (P-gp): inhibitors | IC50 (P-gp): 1 ± 0.2 µM | fold higher IC50 value for BCRP than for P-gp (P-gp): more than 2.6 fold

CC(NCC(O)COc1ccccc1C(=O)CCc1ccccc1)C(F)F (stereo not shown) [Compound 16 c, 1‐(2‐(3‐((1,1‐Difluoropropan‐2‐yl)amino)‐2‐hydroxypropoxy)phenyl)‐3‐phenylpropan‐1‐one]
IC50 (BCRP): 4.9 ± 1.1 µM | Hill coefficient BCRP (BCRP): 1.0±0.2 | in vitro classification as BCRP inhibitor (BCRP): inhibitors | Hill coefficient P-gp (P-gp): 1.5±0.1 | in vitro classification as P-gp inhibitor (P-gp): inhibitors | IC50 (P-gp): 0.9 ± 0.2 µM | fold higher IC50 value for BCRP than for P-gp (P-gp): more than fivefold
